One test has as its target Rho kinase 1 (ROCK-I) (Homo sapiens, UniProt Q13464). Put plainly: In vitro Rho kinase inhibitory activity assay (ADP-Glo), Rho kinase 1. It is filed as biochemical. The settings on record: 10 μM ATP, 25° C., expressed as range of activity. An outline of the steps: (§1)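 ADP-Glo luminescence read-out. Enzyme (ROCK1 or ROCK2) + compound 30 min, then 10 μM ATP final, 1 h, 25 °C; 2.5 μM MBP peptide substrate, Tris pH7.5/MgCl2/BSA/DTT buffer, 1% DMSO. IC50 from variable-slope fit (0–100% fixed); Ki via Cheng-Prusoff.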

The next test has as its target Rho kinase 2 (ROCK-II) (Homo sapiens, UniProt O75116). In words: In vitro Rho kinase inhibitory activity assay (ADP-Glo), Rho kinase 2. It is filed as biochemical. The settings on record: 10 μM ATP, 25° C., expressed as range of activity. A digest of the protocol:
as §1

Chain of Rho kinase 1 (ROCK-I) (Q13464 whole entry): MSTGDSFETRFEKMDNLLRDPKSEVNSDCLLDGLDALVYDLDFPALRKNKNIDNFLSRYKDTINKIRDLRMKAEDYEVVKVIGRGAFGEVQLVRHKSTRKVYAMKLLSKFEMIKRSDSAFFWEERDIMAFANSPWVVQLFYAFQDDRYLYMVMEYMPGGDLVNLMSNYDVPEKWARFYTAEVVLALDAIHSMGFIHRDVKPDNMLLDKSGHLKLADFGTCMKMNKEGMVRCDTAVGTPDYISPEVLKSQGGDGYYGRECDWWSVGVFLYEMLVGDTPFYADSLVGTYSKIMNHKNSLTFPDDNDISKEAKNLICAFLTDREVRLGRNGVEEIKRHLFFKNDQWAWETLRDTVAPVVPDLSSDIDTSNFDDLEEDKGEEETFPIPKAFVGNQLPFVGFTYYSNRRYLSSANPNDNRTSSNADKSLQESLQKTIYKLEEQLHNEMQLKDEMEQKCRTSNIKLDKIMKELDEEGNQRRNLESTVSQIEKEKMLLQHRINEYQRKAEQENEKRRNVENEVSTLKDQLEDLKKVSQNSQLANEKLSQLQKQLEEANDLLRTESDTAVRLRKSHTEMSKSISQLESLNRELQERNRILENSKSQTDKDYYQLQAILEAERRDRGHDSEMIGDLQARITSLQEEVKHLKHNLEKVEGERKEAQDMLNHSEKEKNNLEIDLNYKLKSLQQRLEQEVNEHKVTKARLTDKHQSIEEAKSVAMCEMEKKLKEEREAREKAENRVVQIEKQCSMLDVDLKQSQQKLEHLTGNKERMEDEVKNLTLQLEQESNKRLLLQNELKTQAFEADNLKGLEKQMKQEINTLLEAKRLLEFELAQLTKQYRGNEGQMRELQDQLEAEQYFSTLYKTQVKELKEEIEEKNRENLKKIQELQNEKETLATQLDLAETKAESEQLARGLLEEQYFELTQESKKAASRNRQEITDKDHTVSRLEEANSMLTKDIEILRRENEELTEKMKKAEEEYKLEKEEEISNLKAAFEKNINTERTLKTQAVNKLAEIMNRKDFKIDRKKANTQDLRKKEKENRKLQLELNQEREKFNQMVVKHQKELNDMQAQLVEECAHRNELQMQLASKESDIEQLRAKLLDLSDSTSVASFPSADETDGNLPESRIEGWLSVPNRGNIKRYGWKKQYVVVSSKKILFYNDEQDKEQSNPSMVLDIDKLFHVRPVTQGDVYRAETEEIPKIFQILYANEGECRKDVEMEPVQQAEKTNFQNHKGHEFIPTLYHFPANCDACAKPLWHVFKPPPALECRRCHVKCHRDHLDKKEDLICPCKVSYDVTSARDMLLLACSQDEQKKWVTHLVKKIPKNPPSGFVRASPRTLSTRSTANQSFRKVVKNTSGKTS
Chain of Rho kinase 2 (ROCK-II) (O75116 whole entry): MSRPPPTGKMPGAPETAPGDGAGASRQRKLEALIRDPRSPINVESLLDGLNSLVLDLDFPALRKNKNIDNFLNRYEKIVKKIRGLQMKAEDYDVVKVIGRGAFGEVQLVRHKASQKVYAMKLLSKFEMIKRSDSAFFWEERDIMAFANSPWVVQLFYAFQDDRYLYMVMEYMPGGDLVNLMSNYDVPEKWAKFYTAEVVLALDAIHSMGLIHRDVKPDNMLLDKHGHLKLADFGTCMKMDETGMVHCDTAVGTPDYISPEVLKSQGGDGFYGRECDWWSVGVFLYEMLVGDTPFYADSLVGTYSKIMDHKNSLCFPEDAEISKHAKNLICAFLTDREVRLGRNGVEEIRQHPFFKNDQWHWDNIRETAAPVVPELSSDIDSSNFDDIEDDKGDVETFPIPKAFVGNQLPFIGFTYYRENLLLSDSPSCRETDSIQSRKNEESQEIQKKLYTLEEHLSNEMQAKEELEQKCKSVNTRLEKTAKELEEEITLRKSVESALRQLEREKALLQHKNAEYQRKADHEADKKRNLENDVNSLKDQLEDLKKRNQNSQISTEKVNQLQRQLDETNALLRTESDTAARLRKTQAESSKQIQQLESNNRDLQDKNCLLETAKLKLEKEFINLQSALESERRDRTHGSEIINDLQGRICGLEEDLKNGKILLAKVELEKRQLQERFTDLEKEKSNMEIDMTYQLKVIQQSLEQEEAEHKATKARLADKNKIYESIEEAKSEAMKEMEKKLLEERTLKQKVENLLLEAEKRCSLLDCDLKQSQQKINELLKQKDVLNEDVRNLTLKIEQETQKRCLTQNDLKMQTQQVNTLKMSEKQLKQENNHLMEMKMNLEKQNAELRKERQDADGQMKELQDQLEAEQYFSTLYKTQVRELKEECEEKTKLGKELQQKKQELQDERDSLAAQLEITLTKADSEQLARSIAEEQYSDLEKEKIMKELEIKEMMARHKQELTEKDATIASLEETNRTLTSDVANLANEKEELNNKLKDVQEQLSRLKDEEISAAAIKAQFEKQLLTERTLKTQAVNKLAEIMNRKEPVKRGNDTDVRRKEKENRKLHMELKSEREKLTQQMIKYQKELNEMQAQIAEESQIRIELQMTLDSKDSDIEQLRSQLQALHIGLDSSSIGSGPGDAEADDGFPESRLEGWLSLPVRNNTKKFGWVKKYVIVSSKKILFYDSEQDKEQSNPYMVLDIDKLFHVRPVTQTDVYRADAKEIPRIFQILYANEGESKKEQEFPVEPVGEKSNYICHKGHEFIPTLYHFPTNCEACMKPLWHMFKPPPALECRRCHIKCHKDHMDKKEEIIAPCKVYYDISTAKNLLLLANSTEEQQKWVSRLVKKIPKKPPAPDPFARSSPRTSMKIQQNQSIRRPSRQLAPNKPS

Turning to `Cc1c[nH]c2nccc(Oc3ccc(C[C@@H](N)C(=O)Nc4ccccc4)cc3F)c12` [Example 149, (R)-2-amino-3-(3-fluoro-4-((3-methyl-1H-pyrrolo[2,3-b]pyridin-4-yl)oxy)phenyl)-N-phenylpropanamide], the Ki on Rho kinase 1 (ROCK-I) and at Rho kinase 2 (ROCK-II) was < 3 nM throughout.

In the case of `CN(C)CCNC(=O)C(Cc1ccc(Oc2ccnc3[nH]ccc23)cc1)NC(=O)C1CCCCC1` (stereo not shown) [Example 181, N-(3-(4-((1H-pyrrolo[2,3-b]pyridin-4-yl)oxy)phenyl)-1-((2-(dimethylamino)ethyl)amino)-1-oxopropan-2-yl)cyclohexanecarboxamide], the Ki on Rho kinase 1 (ROCK-I) and on Rho kinase 2 (ROCK-II) was > 30 nM each time.

As to `CN(Cc1ccccc1)C(=O)[C@@H](N)Cc1ccc(Oc2ccnc3[nH]ccc23)cc1` [Example 93, (S)-3-(4-((1H-pyrrolo[2,3-b]pyridin-4-yl)oxy)phenyl)-2-amino-N-benzyl-N-methylpropanamide], the Ki at Rho kinase 1 (ROCK-I) and at Rho kinase 2 (ROCK-II) was 3 to 30 nM each time.

For the compound `Cc1c[nH]c2nccc(Oc3ccc(C[C@H](N)C(=O)N4CCN(c5ccccc5)CC4)cc3F)c12` [Example 5, (S)-2-amino-3-(3-fluoro-4-((3-methyl-1H-pyrrolo[2,3-b]pyridin-4-yl)oxy)phenyl)-1-(4-phenylpiperazin-1-yl)propan-1-one], the Ki on Rho kinase 1 (ROCK-I) and at Rho kinase 2 (ROCK-II) was < 3 nM each time.

Take `Cc1c[nH]c2nccc(Oc3ccc(C[C@H](N)C(=O)N4C[C@@H]5C[C@H]4CN5C)cc3F)c12` [Example 25, (S)-2-amino-3-(3-fluoro-4-((3-methyl-1H-pyrrolo[2,3-b]pyridin-4-yl)oxy)phenyl)-1-((1S,4S)-5-methyl-2,5-diazabicyclo[2.2,1]heptan-2-yl)propan-1-one]: the Ki on Rho kinase 1 (ROCK-I) and on Rho kinase 2 (ROCK-II) was < 3 nM throughout.

With `Cc1c[nH]c2nccc(Oc3ccc(CC(N)C(=O)N4Cc5ccncc5C4)cc3F)c12` (stereo not shown) [Example 65, 2-amino-3-(3-fluoro-4-((3-methyl-1H-pyrrolo[2,3-b]pyridin-4-yl)oxy)phenyl)-1-(1H-pyrrolo[3,4-c]pyridin-2(3H)-yl)propan-1-one], the Ki at Rho kinase 1 (ROCK-I) and at Rho kinase 2 (ROCK-II) was < 3 nM each time.

For the compound `Cc1c[nH]c2nccc(Oc3ccc(C[C@H](N)C(=O)N4CCN(C(=O)Cc5ccccc5)CC4)cc3F)c12` [Example 169, (S)-2-amino-3-(3-fluoro-4-((3-methyl-1H-pyrrolo[2,3-b]pyridin-4-yl)oxy)phenyl)-1-(4-(2-phenylacetyl-)piperazin-1-yl)propan-1-one], the inhibition constant Ki on Rho kinase 1 (ROCK-I) and on Rho kinase 2 (ROCK-II) was < 3 nM in each case.

With `Cc1c[nH]c2nccc(Oc3ccc(C[C@H](N)C(=O)N4CCN(Cc5csnn5)CC4)cc3F)c12` [Example 164, (S)-1-(4-((1,2,3-thiadiazol-4-yl)methyl)piperazin-1-yl)-2-amino-3-(3-fluoro-4-((3-methyl-1H-pyrrolo[2,3-b]pyridin-4-yl)oxy)phenyl)propan-1-one], the inhibition constant (Ki) at Rho kinase 1 (ROCK-I) and at Rho kinase 2 (ROCK-II) was < 3 nM throughout.

Consider `CN(C)CCNC(=O)[C@@H](N)Cc1ccc(Oc2ccnc3[nH]ccc23)cc1` [Example 95, (S)-3-(4-((1H-pyrrolo[2,3-b]pyridin-4-yl)oxy)phenyl)-2-amino-N-(2-(dimethylamino)ethyl)propanamide], for which the Ki at Rho kinase 1 (ROCK-I) and on Rho kinase 2 (ROCK-II) was > 30 nM in each case.

For the compound `N[C@@H](Cc1ccc(Oc2ccnc3[nH]cc(C4=CCOC4)c23)cc1)C(=O)N1CCN(Cc2ccccc2)CC1` [Example 201, (S)-2-amino-1-(4-benzylpiperazin-1-yl)-3-(4-((3-(2,5-dihydrofuran-3-yl)-1H-pyrrolo[2,3-b]pyridin-4-yl)oxy)phenyl)propan-1-one], the Ki at Rho kinase 1 (ROCK-I) and at Rho kinase 2 (ROCK-II) was < 3 nM in each case.

For the compound `N[C@@H](Cc1ccc(Oc2ccnc3[nH]cc(CO)c23)c(F)c1)C(=O)N1CCN(Cc2ccccc2)CC1` [Example 207, (S)-2-amino-1-(4-benzylpiperazin-1-yl)-3-(3-fluoro-4-((3-(hydroxymethyl)-1H-pyrrolo[2,3-b]pyridin-4-yl)oxy)phenyl)propan-1-one], the Ki at Rho kinase 1 (ROCK-I) and on Rho kinase 2 (ROCK-II) was < 3 nM each time.

In the case of `N[C@@H](Cc1ccc(Oc2ccnc3[nH]ccc23)cc1)C(=O)Nc1ccccc1` [Example 109, (S)-3-(4-((1H-pyrrolo[2,3-b]pyridin-4-yl)oxy)phenyl)-2-amino-N-phenylpropanamide], the inhibition constant Ki at Rho kinase 1 (ROCK-I) and at Rho kinase 2 (ROCK-II) was 3 to 30 nM throughout.

Take `Cc1c[nH]c2nccc(Oc3ccc(C[C@H](N)C(=O)N4CCN(C(=O)N(C)C)CC4)cc3F)c12` [Example 23, (S)-4-(2-amino-3-(3-fluoro-4-((3-methyl-1H-pyrrolo[2,3-b]pyridin-4-yl)oxy)phenyl)propanoyl)-N,N-dimethylpiperazine-1-carboxamide]: the inhibitory constant (Ki) at Rho kinase 1 (ROCK-I) and at Rho kinase 2 (ROCK-II) was < 3 nM throughout.

Take `Cc1c[nH]c2nccc(Oc3ccc(C[C@H](N)C(=O)N4CCN(Cc5cnn(C)c5)CC4)cc3F)c12` [Example 163, (S)-2-amino-3-(3-fluoro-4-((3-methyl-1H-pyrrolo[2,3-b]pyridin-4-yl)oxy)phenyl)-1-(4-((1-methyl-1H-pyrazol-4-yl)methyl)piperazin-1-yl)propan-1-one]: the Ki on Rho kinase 1 (ROCK-I) and at Rho kinase 2 (ROCK-II) was < 3 nM throughout.

Take `Cc1c[nH]c2ncnc(Oc3ccc(C[C@H](N)C(=O)N4CCC(S(=O)(=O)c5ccccc5)CC4)cc3F)c12` [Example 127, (S)-2-amino-3-(3-fluoro-4-((5-methyl-7H-pyrrolo[2,3-d]pyrimidin-4-yl)oxy)phenyl)-1-(4-(phenylsulfonyl)piperidin-1-yl)propan-1-one]: the Ki at Rho kinase 1 (ROCK-I) and on Rho kinase 2 (ROCK-II) was < 3 nM throughout.

On to `Cc1ccc(CN2CCN(C(=O)C(N)Cc3ccc(Oc4ccnc5[nH]cc(C)c45)c(F)c3)CC2)cc1` (stereo not shown) [Example 72, 2-amino-3-(3-fluoro-4-((3-methyl-1H-pyrrolo[2,3-b]pyridin-4-yl)oxy)phenyl)-1-(4-(4-methylbenzyl)piperazin-1-yl)propan-1-one], for which the inhibition constant (Ki) on Rho kinase 1 (ROCK-I) and at Rho kinase 2 (ROCK-II) was < 3 nM in each case.

`Cc1c[nH]c2nccc(Oc3ccc(C[C@H](N)C(=O)N4CCC(S(=O)(=O)c5ccccc5)CC4)cc3F)c12` [Example 7, (S)-2-amino-3-(3-fluoro-4-((3-methyl-1H-pyrrolo[2,3-b]pyridin-4-yl)oxy)phenyl)-1-(4-(phenylsulfonyl)piperidin-1-yl)propan-1-one]: the Ki on Rho kinase 1 (ROCK-I) and on Rho kinase 2 (ROCK-II) was < 3 nM each time.

Turning to `Cc1c[nH]c2nccc(Oc3ccc(C[C@H](N)C(=O)N4CCN(C(=O)C5CCCCC5)CC4)cc3F)c12` [Example 168, (S)-2-amino-1-(4-(cyclohexanecarbonyl)piperazin-1-yl)-3-(3-fluoro-4-((3-methyl-1H-pyrrolo[2,3-b]pyridin-4-yl)oxy)phenyl)propan-1-one], the Ki at Rho kinase 1 (ROCK-I) and on Rho kinase 2 (ROCK-II) was < 3 nM throughout.

In the case of `Cc1c[nH]c2nccc(Oc3ccc(C[C@H](N)C(=O)N4C[C@H]5CN(C)C[C@H]5C4)cc3F)c12` [Example 30, (S)-2-amino-3-(3-fluoro-4-((3-methyl-1H-pyrrolo[2,3-b]pyridin-4-yl)oxy)phenyl)-1-((3aR,6aS)-5-methylhexahydropyrrolo[3,4-c]pyrrol-2(1H)-yl)propan-1-one], the Ki at Rho kinase 1 (ROCK-I) and on Rho kinase 2 (ROCK-II) was < 3 nM in each case.

Consider `Cc1noc(C2CCN(C(=O)[C@@H](N)Cc3ccc(Oc4ccnc5[nH]cc(C)c45)c(F)c3)C2)n1` (single isomer, unassigned) [Example 8A], for which the Ki at Rho kinase 1 (ROCK-I) and on Rho kinase 2 (ROCK-II) was < 3 nM each time.

On to `N[C@@H](Cc1ccc(Oc2ccnc3[nH]cc(-c4ccc(O)cc4)c23)cc1)C(=O)NCCc1ccncc1` [Example 206, (S)-2-amino-3-(4-((3-(4-hydroxyphenyl)-1H-pyrrolo[2,3-b]pyridin-4-yl)oxy)phenyl)-N-(2-(pyridin-4-yl)ethyl)propanamide], for which the inhibition constant (Ki) on Rho kinase 1 (ROCK-I) and on Rho kinase 2 (ROCK-II) was < 3 nM throughout.

`Cc1c[nH]c2nccc(Oc3ccc(CC(N)C(=O)N4CCCC4c4ccccc4)cc3F)c12` (single isomer, unassigned) [Example 85, 2-amino-3-(3-fluoro-4-((3-methyl-1H-pyrrolo[2,3-b]pyridin-4-yl)oxy)phenyl)-1-(2-phenylpyrrolidin-1-yl)propan-1-one]: the Ki on Rho kinase 1 (ROCK-I) and at Rho kinase 2 (ROCK-II) was 3 to 30 nM throughout.

On to `CN1C[C@@H]2C[C@H]1CN2C(=O)[C@@H](N)Cc1ccc(Oc2ccnc3[nH]cc(C#N)c23)c(F)c1` [Example 223, 4-(4-((S)-2-amino-3-((1S,4S)-5-methyl-2,5-diazabicyclo[2.2.1]heptan-2-yl)-3-oxopropyl)-2-fluorophenoxy)-1H-pyrrolo[2,3-b]pyridine-3-carbonitrile], for which the inhibition constant (Ki) at Rho kinase 1 (ROCK-I) and at Rho kinase 2 (ROCK-II) was < 3 nM in each case.

In the case of `Cc1c[nH]c2nccc(Oc3ccc(CC(N)C(=O)NCCc4ccccc4)cc3F)c12` (stereo not shown) [Example 76, 2-amino-3-(3-fluoro-4-((3-methyl-1H-pyrrolo[2,3-b]pyridin-4-yl)oxy)phenyl)-N-phenethylpropanamide], the Ki on Rho kinase 1 (ROCK-I) and on Rho kinase 2 (ROCK-II) was < 3 nM each time.

For `N[C@@H](Cc1ccc(Oc2ccnc3[nH]cc(CO)c23)c(F)c1)C(=O)NC1CCCCC1` [Example 208, (S)-2-amino-N-cyclohexyl-3-(3-fluoro-4-((3-(hydroxymethyl)-1H-pyrrolo[2,3-b]pyridin-4-yl)oxy)phenyl)-propanamide], the Ki on Rho kinase 1 (ROCK-I) and on Rho kinase 2 (ROCK-II) was < 3 nM throughout.

Turning to `Cc1c[nH]c2nccc(Oc3ccc(CC(N)C(=O)N4CCN(Cc5ccccc5)CC4)cc3F)c12` (single isomer, unassigned) [Example 132A, 2-amino-1-(4-benzylpiperazin-1-yl)-3-(3-fluoro-4-((3-methyl-1H-pyrrolo[2,3-b]pyridin-4-yl)oxy)phenyl)propan-1-one], the Ki on Rho kinase 1 (ROCK-I) and at Rho kinase 2 (ROCK-II) was < 3 nM throughout.

The record behind these values is patent US10501461B2, “Tyrosine amide derivatives as Rho-kinase inhibitors” (CHIESI FARMACEUTICI S.P.A., priority 2017, dated 2019).
